According to patent publication US9775833B2, “Method for the treatment of NF1- or RAS-associated disorders” (The Trustees of Dartmouth College, priority 2015, dated 2017):
“Also recorded” adds a separate entry of the source.

Experiments:
[1] = system: yeast model of NF1 deficiency (IRA2, yeast homolog of human NF1); assay: Yeast growth assay, yeast model of NF1 deficiency (OD 600 nm); format: cell-based, Saccharomyces cerevisiae; details: increasing concentrations, 18 hours
Protocol: (§1) IRA2 is a yeast homolog of human NF1. Cells were grown in the presence of increasing concentrations of compound 1 for 18 hours. The absorbance (OD 600 nm) was measured as a surrogate marker of cell growth. The assay has been described previously: see Sanchez et al., Mol. Cancer Ther. 2011 Sep.: 10(9):1740-1750.
as §1, with “Y100B” for “compound 1”

control strains = assay: Yeast growth assay, control strains (OD 600 nm); format: cell-based, Saccharomyces cerevisiae; details: increasing concentrations, 18 hours
Protocol: as §1
as §1, with “Y100B” for “compound 1”

[2] = system: NF1-deficient tumor cells (U87-MG); assay: alamarBlue viability/growth assay in U87-MG cells; format: cell-based, human
Protocol: Cells were incubated with drug for 15 minutes-72 h. At the noted times, the drug was removed, cells were rinsed with PBS, and replaced with normal media. At 69 hours, 5 uL of alamarBlue viability assay reagent was added to each well. At 72 h, the fluorescence was measured (Ex/Em 544/590 nm) as a surrogate indicator of viability. All values were normalized to the fluorescence observed in a vehicle (DMSO) control.
Cells were incubated with drug for 3 or 7 days. 3 hours before the end of the experiment, 5 uL of alamarBlue viability assay reagent was added to each well. At the end of each timepoint, the fluorescence was measured (Ex/Em 544/590 nm) as a surrogate indicator of viability. All values were normalized to the fluorescence observed in a vehicle (DMSO) control.
Viability Assay. Cells are cultured on plastic 96-well plates. Cell viability is estimated using metabolism as a surrogate marker via the ALAMARBLUE viability/proliferation assay (AbD Serotec; Kidlington, UK) according to the protocol of the manufacturer. The modification of the ALAMARBLUE reagent to a fluorescent substrate is measured with a fluorimeter, after which fluorescent intensity is normalized as a percentage of the vehicle control. Assays are done in triplicate.
Dose Response Assays (Mammalian Cells). To perform drug sensitivity assays, U87-MG cells were plated to 96-well plates at a concentration of 5000 cells/well. After overnight incubation, medium was removed and replaced with 100 μL of medium containing 0-20 uM Compound 1 and DMSO (to normalize DMSO concentrations). In the case of the beta-mercaptoethanol and N-acetyl cysteine co-treatment assays, cells were preincubated with these compounds or a vehicle control for 2 h before being replaced with Y100+/− N-acetyl cysteine, beta-mercaptoethanol or vehicle. Cells were incubated for the noted time with a final 3-hour incubation in 5% AlamarBlue (Thermo Scientific). The plate was scanned at an Ex/Em of 544/590 nm, and fluorescence was normalized to vehicle control wells. Dose-response curves and IC50s were calculated with the Prism 6 software package (GraphPad, San Diego, Calif., USA) by performing a 4-parameter logistic regression with outlier exclusion analysis.

p62/SQSTM-1 = p62/SQSTM-1 level, western blot and immunofluorescence; format: cell-based, human; details: U87-MG, 24 h; western blot, immunofluorescent microscopy
Protocol: U87-MG tumor cells were treated with compound 1 or hydroxychloroquine (an autophagy inhibitor) for 24 h or a cocktail of proteasome inhibitors (bortezomib, BTZ and MG-132) for 2 h. P62 and tubulin levels were determined by western blot.
(§2) U87-MG tumor cells were treated with Y100, hydroxychloroquine (an autophagy inhibitor) or rapamycin (an autophagy inducer) for 24 hours. LC3B-I to LC3-II conversion and tubulin levels were determined by western blot.
Western Blotting. U87-MG cells were plated at a concentration of 500,000 cells per well in a 6-well plate and allowed to adhere overnight. Cells were treated with the noted concentrations and times of controls or compound 1. After treatment, cells were harvested with trypsin, rinsed, and lysed with approximately 75 microliters RIPA buffer with protease and phosphatase inhibitors per 500,000 cells. Protein was quantified with a BCA assay kit (Pierce). 30 micrograms of protein was separated on a 4-15% SDS-PAGE gel (Bio-Rad) by SDS gel electrophoresis. Protein was transferred to a nitrocellulose membrane, blocked with 5% milk in TBST and probed with LC3B (Cell Signaling, 1:1000, overnight), p62/SQSTM-1 (Santa Cruz, 1:1000, 1 h), tubulin (Santa Cruz, 1:10000, 1 h), K63 ubiquitin (Cell Signaling, 1:1000, 1 h), K48 ubiquitin (Cell Signaling, 1:2000, 1 h) in 2% milk in TBST. […]

LC3B-II = assay: LC3B accumulation, western blot and immunofluorescence; format: cell-based, human; details: U87-MG, 24 hours; western blot, immunofluorescent microscopy
Protocol: as §2
(§3) Western Blotting. U87-MG cells were plated at a concentration of 500,000 cells per well in a 6-well plate and allowed to adhere overnight. Cells were treated with the noted concentrations and times of controls or compound 1. After treatment, cells were harvested with trypsin, rinsed, and lysed with approximately 75 microliters RIPA buffer with protease and phosphatase inhibitors per 500,000 cells. Protein was quantified with a BCA assay kit (Pierce). 30 micrograms of protein was separated on a 4-15% SDS-PAGE gel (Bio-Rad) by SDS gel electrophoresis. Protein was transferred to a nitrocellulose membrane, blocked with 5% milk in TBST and probed with LC3B (Cell Signaling, 1:1000, overnight), p62/SQSTM-1 (Santa Cruz, 1:1000, 1 h), tubulin (Santa Cruz, 1:10000, 1 h), K63 ubiquitin (Cell Signaling, 1:1000, 1 h), K48 ubiquitin (Cell Signaling, 1:2000, 1 h) in 2% milk in TBST. Secondary labeling was performed with a one hour incubation in 1:20000 anti-rabbit HRP or 1:10000 anti-mouse HRP (Jackson Immunoresearch) diluted in 2% milk in TBST. Film was then exposed to ECL-coated blots (Pierce) and developed using a standard film processor.

[3] = system: lysine 63 and lysine 48 polyubiquitin linked-proteins; assay: K63/K48 polyubiquitin western blot in U87-MG cells; format: cell-based, human; details: 24 hours, comparable to HCQ (50 uM, 24 h) or MG132 plus bortezomib cocktail
Protocol: as §3

[4] = system: lysine 63 and lysine 48 polyubiquitin linked-proteins; assay: K63/K48 polyubiquitin western blot in U251-MG cells; format: cell-based, human; details: 24 hours, comparable to HCQ (50 uM, 24 h) or MG132 plus bortezomib cocktail
U87-MG cells [5] = assay: Mitochondrial immunofluorescence (Mitotracker Red / TOMM20) in U87-MG cells; format: cell-based, human; details: 24 hours, Mitotracker Red and TOMM20
Protocol: Polarized mitochondria are labeled with Mitotracker Red, while all mitochondria are labeled with an antibody specific to the mitochondrial protein TOMM20.
Immunofluorescence. U87-MG cells were cultured on poly-D-lysine coated coverslips (Neuvitro Corporation) or poly-L-lysine coated coverslips and treated with Compound 1 (Chembridge) for 24 hours. For the last 30 minutes of treatment, cells were labeled with 100 nM Mitotracker Red (Life Technologies). After treatment and labeling, cells were rinsed with PBS. Cells were fixed in 4% methanol-free paraformaldehyde (Electron Microscopy Services) in PBS (Corning) for 10 minutes at room temperature and blocked with immunofluorescence buffer (2% [v/v] goat serum, 0.2% [v/v] Triton X-100 and 0.05% [w/v] sodium azide in PBS) at RT. TOMM20 was labeled using 1:200 rabbit anti-TOM20 (Santa Cruz) at room temperature for one hour, and cells were rinsed 3 times for 5 minutes with PBST. Secondary labeling was performed with 1:600 goat anti-rabbit F(ab′) 2 DyLight 488 at room temperature for 1 hour (Jackson Immunoresearch) diluted in IF buffer. Cells were then rinsed 2 times for five minutes with PBST and then nuclei were labeled with DAPI in PBS for 5 minutes. Coverslips were mounted on glass slides with ProLong Gold (Life Technologies). […]

U251-MG cells = assay: Mitochondrial immunofluorescence (Mitotracker Red / TOMM20) in U251-MG cells; format: cell-based, human; details: Mitotracker Red and TOMM20
U87-MG cells [6] = assay: MitoSOX Red flow cytometry for mitochondrial superoxide; format: cell-based, human; details: 24 h of treatment
Protocol: Flow Cytometry. To determine mitochondrial superoxide levels, 500,000 U87-MG cells/well were plated to a 6-well plate and allowed to adhere overnight. The medium was then replaced with cell culture media containing DMSO or Y100. Cells were treated for 24 hours. 30 minutes before the end of the incubation, 1 micromolar MitoSOX Red was added. At the end of the incubation, cells were rinsed with PBS and trypsinized, and then rinsed two more times. The cells were transferred to flow cytometry tubes and analyzed using a MacsQuant VYB 8-color flow cytometer. MitoSOX Red fluorescence was detected using the Y1-A (PE) channel. 30,000 events per sample were collected. Histograms were generated using the FlowJo flow cytometry analysis software package.

[7] = ROS scavenger co-treated for 72 hours, alamarBlue

| SMILES | growth / cell death of NF1-deficient yeast (absorbance OD 600 nm) [1] | growth of control yeast strains (absorbance OD 600 nm) (control strains) | effect on U87-MG cells on co-treatment with N-acetyl cysteine (NAC) [2, 7] | effect on U87-MG cells on co-treatment with β-mercaptoethanol [2, 7] | effect on cell viability/growth on pretreatment and co-treatment with buthionine sulfoximine (BSO) ([2]; U87-MG, 3-day alamarBlue assay) | drug exposure time giving an irreversible effect on cell viability/growth ([2]; U87-MG, drug removed after 15 minutes-72 h, alamarBlue read at 72 h) [min] | autophagy marker p62/SQSTM-1 (P62 accumulation) (p62/SQSTM-1) | LC3B accumulation (LC3B-I to LC3-II conversion) (LC3B-II) | accumulation of lysine 63 and lysine 48 polyubiquitin linked-proteins [3] | accumulation of lysine 63 and lysine 48 polyubiquitin linked-proteins [4] | formation of polarized mitochondrial hotspots (U87-MG cells [5]) | formation of polarized mitochondrial hotspots (U251-MG cells) | formation and/or accumulation of mitochondrial superoxide (MitoSOX Red) (U87-MG cells [6]) | viability and/or growth of U87 MG cells (alamarBlue) ([2]; incubated with drug for 3 or 7 days) |
| --- | --- | --- | --- | --- | --- | --- | --- | --- | --- | --- | --- | --- | --- | --- |
| CCOC(=O)c1ccc2c3c(onc13)-c1ccccc1C2=O [compound 1] | selectively inhibits growth or induces cell death | without affecting the control strains | abrogate the effect of compound 1 | abrogate the effect of compound 1 | potentiates the effect of compound 1 on cell viability/growth | ≤ 15 | modulates the autophagy marker and ubiquitin binding scaffold protein p62/SQSTM-1; also recorded: induces P62 accumulation | not LC3B accumulation | induces the accumulation of lysine 63 and lysine 48 polyubiquitin linked-proteins | induces the accumulation of lysine 63 and lysine 48 polyubiquitin linked-proteins | induces the formation of polarized mitochondrial hotspots | induces the formation of polarized mitochondrial hotspots | induces the formation and/or accumulation of mitochondrial superoxide |  |
| COC(=O)c1ccc2c3c(onc13)-c1ccccc1C2=O [compound 2] | selectively inhibits growth or induces cell death | without affecting the control strains |  |  |  |  |  |  |  |  |  |  |  | reduces viability and/or growth |
| CCN(CCO)CCCC(C)Nc1ccnc2cc(Cl)ccc12 (stereo not drawn) [hydroxychloroquine] |  |  |  |  |  |  | induces P62 accumulation | induces accumulation of the autophagy marker LC3B-II |  |  |  |  |  |  |
